The record followed here is patent US20110268807A1, “Biodegradable Microspheres and Methods of Use Thereof” (priority 2008, published 2011).

Data set [1] can be described thus: Release of atropine from hydrogel in medium at 37° C., static conditions. Type of data set: physicochemical. An excerpt: FIG. 16 depicts release rate of atropine from hydrogel. […] Hydrogel for the second release test (B) was soaked in excess drug solution to reach maximum swelling. Almost no drug retention was observed; therefore, the release is approximately zero.

Data set [2] can be described thus: Atropine release per cycle (atropine content in filtrate), nanoparticles. The settings on record: FIG. 17B. Type of data set: physicochemical. From the text: FIGS. 17A and 17B depict atropine release. […] The first sharp decrease in atropine release would be related to the excess atropine in solution. The slow release characteristic of the second slope would be the drug release associated with nanoparticle degradation.

Take `CN1[C@@H]2CC[C@H]1C[C@@H](OC(=O)C(CO)c1ccccc1)C2` (stereo partly shown) [atropine]: the “atropine release from hydrogel” value in data set [1] (first preliminary test (A): hydrogel absorbed all of the drug solution, medium at 37° C., static conditions) is recorded as 68%; in data set [1] (second release test (B): hydrogel soaked in excess drug solution to maximum swelling, almost no drug retention) it was “approximately zero”. Moreover, the “time course of atropine release from hydrogel” value in data set [1] (first preliminary test (A), burst effect) is listed as “most of which occurred during the first two hours”. For the same molecule, the “cumulative release percentage per cycle” value in data set [2] is given as “all the atropine was release by the seventh cycle”.
